As a reminder, the IC50 is the midpoint of a concentration-inhibition curve.

Data set [1] deals with H295R cells. Kind of data set: cAMP assay in H295R adrenocortical cells. The data set is classed as cell-based, human. The note with it: 20 μM, 2 h, absence or presence of 10 μM forskolin. Here is the method: (§1) Human NCI-H295R cells were maintained as described (33). HeLa cells were maintained in DMEM with 10% FBS. 90% confluent cells in 12-well dishes were incubated in serum-starved media for 1 h, then in 0.5 ml serum-starved media with 20 µM compounds or 0.2% DMSO for 2 h in the absence or presence of 10 μM forskolin (Sigma Aldrich). Media was collected and cAMP levels were measured as described (33), using a cAMP ELISA kit (Enzo). cAMP levels were normalized to protein content measured using a BCA Protein Assay Kit (Pierce). Immunoblot analysis of protein lysates was performed as described (34), using phospho-CREB(9198), Akt(4685), or CREB(9197) primary antibodies (Cell Signaling Technology) and goat anti-rabbit IgG-HRP secondary antibody (sc-2030, Santa Cruz).
For orientation: Changes in cAMP serve as a functional read-out for many G protein-coupled receptors.

Data set [2] concerns H295R cells. Briefly: Cortisol assay in H295R cells. The data set is classed as cell-based, human. The note with it: 20 μM, 24 h, forskolin. Here is the method:
H295R cells were treated with compounds as described in the cAMP assays, for 24 h. Media was collected and cortisol content was quantified using a Cortisol EIA Kit (Oxford Biomedical Research). Cortisol levels were normalized to protein concentrations in cell extracts, as described above.

Data set [3] deals with chronic lymphocytic leukemia cells from a first leukemia patient. Kind of data set: Apoptosis of chronic lymphocytic leukemia cells, first patient. Details: % apoptosis: dose or concentration left out as unconfirmed. The note with it: for effect on apoptosis, in words: first patient, high background apoptosis. The format is cell-based, human. An excerpt: (§2) In collaboration with other researchers, the effect of different PDE inhibitors on chronic lymphocytic leukemia cells was investigated. The lymphocytic leukemia cells were obtained from individual patients and cannot be maintained in cell culture.

The subject of data set [4] is chronic lymphocytic leukemia cells from a second leukemia patient. Kind of data set: Apoptosis of chronic lymphocytic leukemia cells, second patient (JM168). The data set is classed as cell-based, human.
From the text: as §2

A further data set relates to normal T cells. Kind of data set: Apoptosis of normal T cells. The format is cell-based. The note with it: for cell viability of normal T cells: with or without rolipram.
Another data set concerns JVM-2 cells. Kind of data set: Apoptosis of JVM-2 B cell leukemia cell line. The data set is classed as cell-based. The note with it: for effect on apoptosis, in words: JVM-2.
The next data set has as its system REC-1 cells. Kind of data set: Apoptosis of REC-1 B cell leukemia cell line. The note with it: for effect on apoptosis, in words: REC-1. The data set is classed as cell-based.
For the next data set, the target named is PDE5A1 (Homo sapiens (Human), UniProt O76074). Briefly: In vitro enzyme assay, PDE5. The data set is classed as biochemical. The note with it: PDE5A, 500 nM cGMP.
A further data set has as its target PDE6C (Homo sapiens (Human), UniProt P51160). Kind of data set: In vitro enzyme assay, PDE6. The data set is classed as biochemical. The note with it: […] cGMP.
For a further data set, the target named is PDE7A (Homo sapiens (Human), UniProt Q13946). Briefly: In vitro enzyme assay, PDE7. The format is biochemical. The note with it: 15 nM cAMP.
Chain of PDE7A (Q13946 whole entry): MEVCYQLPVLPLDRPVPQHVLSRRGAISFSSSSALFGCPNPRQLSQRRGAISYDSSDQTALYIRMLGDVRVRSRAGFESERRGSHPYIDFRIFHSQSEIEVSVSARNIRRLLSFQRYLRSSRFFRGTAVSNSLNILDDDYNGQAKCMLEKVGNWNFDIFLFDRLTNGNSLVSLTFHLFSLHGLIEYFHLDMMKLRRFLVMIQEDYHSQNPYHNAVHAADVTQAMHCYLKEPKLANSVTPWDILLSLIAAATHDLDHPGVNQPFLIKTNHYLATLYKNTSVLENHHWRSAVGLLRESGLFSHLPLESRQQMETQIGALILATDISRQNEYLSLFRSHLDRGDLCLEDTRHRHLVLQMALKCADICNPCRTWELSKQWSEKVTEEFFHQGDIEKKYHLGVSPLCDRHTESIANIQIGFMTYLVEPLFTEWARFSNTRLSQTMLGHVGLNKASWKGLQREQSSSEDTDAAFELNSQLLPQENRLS
The target in data set [5] is T1, PDE10A1 (Homo sapiens (Human), UniProt Q9Y233). Kind of data set: In vitro enzyme assay, PDE10. The note with it: read-out: IC50 PDE10; PDE10A, 30 nM cAMP.
T1 sequence (Q9Y233 other isoform, or with tags, fused parts or gaps): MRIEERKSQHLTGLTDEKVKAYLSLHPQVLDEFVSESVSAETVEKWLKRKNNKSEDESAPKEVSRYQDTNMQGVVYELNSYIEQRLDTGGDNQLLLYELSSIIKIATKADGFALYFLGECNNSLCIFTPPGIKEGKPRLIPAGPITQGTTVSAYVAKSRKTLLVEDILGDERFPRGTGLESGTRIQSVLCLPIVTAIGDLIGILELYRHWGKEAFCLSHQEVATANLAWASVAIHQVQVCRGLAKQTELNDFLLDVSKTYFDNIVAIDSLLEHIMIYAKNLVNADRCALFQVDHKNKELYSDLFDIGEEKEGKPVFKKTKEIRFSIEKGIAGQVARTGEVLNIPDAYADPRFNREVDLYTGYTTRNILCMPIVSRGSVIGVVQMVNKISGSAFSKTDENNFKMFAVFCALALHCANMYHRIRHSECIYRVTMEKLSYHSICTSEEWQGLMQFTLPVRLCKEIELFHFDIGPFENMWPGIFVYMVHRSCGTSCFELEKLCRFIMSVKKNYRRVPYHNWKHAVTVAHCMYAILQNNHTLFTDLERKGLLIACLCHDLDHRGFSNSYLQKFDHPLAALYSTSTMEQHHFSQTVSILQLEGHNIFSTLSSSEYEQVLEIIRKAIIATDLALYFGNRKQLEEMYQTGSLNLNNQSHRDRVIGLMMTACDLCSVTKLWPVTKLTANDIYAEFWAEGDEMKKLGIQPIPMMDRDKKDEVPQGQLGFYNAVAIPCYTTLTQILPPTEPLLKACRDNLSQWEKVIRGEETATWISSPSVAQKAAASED
The test system of data set [6] is H295R cells. Kind of data set: ATF-1 phosphorylation immunoblot in H295R cells. The data set is classed as cell-based, human. As to the method:
as §1
On the technique in general: A western blot detects proteins with antibodies after separation by electrophoresis.

Data set [7] relates to HeLa cells. Kind of data set: cAMP assay in HeLa cells. The note with it: as for H295R cells (20 μM). The format is cell-based. As to the method: as §1
The test system of data set [8] is HeLa cells. Briefly: CREB phosphorylation immunoblot in HeLa cells. The format is cell-based. The note with it: as for H295R cells (20 μM). As to the method: as §1
For data set [9], the system named is chronic lymphocytic leukemia cells from a third leukemia patient. Kind of data set: Apoptosis of chronic lymphocytic leukemia cells, third patient (JM167). The format is cell-based, human.
From the text: as §2

The target in another data set is human PDE11A4 (Homo sapiens (Human), UniProt Q9HCR9). Briefly: biochemical.
Chain of human PDE11A4 (Q9HCR9 whole entry): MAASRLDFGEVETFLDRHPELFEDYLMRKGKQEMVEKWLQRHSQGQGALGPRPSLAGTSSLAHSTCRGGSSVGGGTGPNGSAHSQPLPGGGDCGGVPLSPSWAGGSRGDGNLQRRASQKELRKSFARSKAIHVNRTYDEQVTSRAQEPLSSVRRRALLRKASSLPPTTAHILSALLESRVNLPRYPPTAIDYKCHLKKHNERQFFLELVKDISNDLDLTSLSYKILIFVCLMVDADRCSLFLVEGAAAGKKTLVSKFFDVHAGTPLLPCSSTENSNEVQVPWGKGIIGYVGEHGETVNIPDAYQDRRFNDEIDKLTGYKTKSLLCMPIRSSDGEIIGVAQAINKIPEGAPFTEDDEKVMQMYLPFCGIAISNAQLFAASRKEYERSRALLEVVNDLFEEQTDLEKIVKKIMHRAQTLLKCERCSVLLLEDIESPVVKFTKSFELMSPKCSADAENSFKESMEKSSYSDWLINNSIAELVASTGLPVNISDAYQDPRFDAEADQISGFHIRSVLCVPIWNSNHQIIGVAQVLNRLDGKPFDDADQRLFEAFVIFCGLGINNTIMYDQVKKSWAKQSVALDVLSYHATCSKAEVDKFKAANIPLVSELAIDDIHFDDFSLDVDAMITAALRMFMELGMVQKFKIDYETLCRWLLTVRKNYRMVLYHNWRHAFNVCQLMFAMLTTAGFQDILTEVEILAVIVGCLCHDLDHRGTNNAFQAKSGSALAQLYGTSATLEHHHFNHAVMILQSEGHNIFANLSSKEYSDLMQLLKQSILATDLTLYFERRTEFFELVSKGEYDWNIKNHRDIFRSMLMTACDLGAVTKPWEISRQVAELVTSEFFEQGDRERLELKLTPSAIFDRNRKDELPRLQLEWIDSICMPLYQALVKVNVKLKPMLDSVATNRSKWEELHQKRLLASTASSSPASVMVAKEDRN
Data set [10] deals with T1, PDE10A1. Briefly: biochemical.
[11] abbreviates: compound 20 μM plus Rolipram (20 μM).

Molecules are shown by their SMILES.

Chain of PDE6C (P51160 whole entry): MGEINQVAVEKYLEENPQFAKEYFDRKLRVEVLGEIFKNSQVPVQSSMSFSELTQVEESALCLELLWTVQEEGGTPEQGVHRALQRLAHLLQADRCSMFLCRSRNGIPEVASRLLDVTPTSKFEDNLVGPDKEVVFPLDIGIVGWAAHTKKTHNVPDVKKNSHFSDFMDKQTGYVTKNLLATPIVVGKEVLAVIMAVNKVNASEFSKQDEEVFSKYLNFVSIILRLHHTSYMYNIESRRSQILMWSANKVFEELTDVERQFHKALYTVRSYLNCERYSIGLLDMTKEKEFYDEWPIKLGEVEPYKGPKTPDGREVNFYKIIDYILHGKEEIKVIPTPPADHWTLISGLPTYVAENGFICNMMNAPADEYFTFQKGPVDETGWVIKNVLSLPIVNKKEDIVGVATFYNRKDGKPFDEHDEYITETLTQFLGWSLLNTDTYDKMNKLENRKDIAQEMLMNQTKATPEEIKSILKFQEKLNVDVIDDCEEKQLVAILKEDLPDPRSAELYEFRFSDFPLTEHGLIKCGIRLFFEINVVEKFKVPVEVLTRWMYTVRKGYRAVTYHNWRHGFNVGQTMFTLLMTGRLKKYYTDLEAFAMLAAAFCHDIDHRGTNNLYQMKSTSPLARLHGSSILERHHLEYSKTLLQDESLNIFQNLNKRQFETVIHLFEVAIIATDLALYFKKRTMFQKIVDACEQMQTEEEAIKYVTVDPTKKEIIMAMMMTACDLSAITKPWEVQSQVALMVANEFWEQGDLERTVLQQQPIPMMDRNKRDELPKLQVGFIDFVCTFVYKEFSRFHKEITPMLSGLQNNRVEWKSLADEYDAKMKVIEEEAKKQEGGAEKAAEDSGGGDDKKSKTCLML

For `O=c1nc2sc3ccccc3n2c(=O)n1-c1ccccc1` [BC11-19], the “cAMP levels in H295R cells” value in the data set with H295R cells [1] is “consistently elevates”. For the same molecule, the “cortisol production by H295R cells” value in the data set on H295R cells [2] is on record as “consistently elevates”.

Regarding `Cn1c(NC(=O)c2ccccc2NC(=O)c2ccccc2)nc2ccccc21` [BC11-4], the “% apoptosis” value is listed as 66.9% in data set [3] (compound); 70.1% in data set [3] (compound alone (DMSO)); 6.65% in data set [4] (BC11-4 0.1 μM, Roli 0 μM); 10.4% in data set [4] (BC11-4 0.1 μM, Roli 0.2 μM); 21.2% in [4] (BC11-4 0.1 μM, Roli 2.0 μM); 28.8% in data set [4] (BC11-4 0.1 μM, Roli 20 μM). For the same molecule, the “% apoptosis” value in data set [4] (BC11-4 1.0 μM, Roli 0 μM) came to 4.71%; in data set [4] (BC11-4 1.0 μM, Roli 0.2 μM), 10.8%; in data set [4] (BC11-4 1.0 μM, Roli 2.0 μM), 20.8%; in data set [4] (BC11-4 1.0 μM, Roli 20 μM) it was 29.6%; in [4] (BC11-4 10.0 μM, Roli 0 μM), 5.78%; in [4] (BC11-4 10.0 μM, Roli 0.2 μM), 4.93%. Moreover, the “% apoptosis” value in [4] (BC11-4 10.0 μM, Roli 2.0 μM) stood at 6.72%; in data set [4] (BC11-4 10.0 μM, Roli 20 μM), 15.8%. For the same molecule, the “effect on apoptosis, in words” value in data set [3] was “increase in apoptosis”; with JVM-2 cells it was “increased apoptosis”; in the data set with REC-1 cells, “increased apoptosis”. Also, the “response of cells (apoptosis), in words” value in data set [4] (second patient) is “did not respond”. For the same molecule, the results for the “% apoptosis of normal T cells” value in the data set with normal T cells (compound 20 μM alone (DMSO)) and in the data set with normal T cells (setting [11]) were 14.3% and 13.9%, respectively. In addition, in the data set with normal T cells, the “cell viability of normal T cells” value is “did not affect cell viability”. Moreover, in the data set on JVM-2 cells (40 μM), the “Apoptosis (%) JVM-2 Cells (B cell leukemia)” value (shortened to “Apoptosis (%) JVM-2 Cells”) is reported as 32.3%. In the data set on REC-1 cells (40 μM), the “Apoptosis (%) REC-1 Cells (B cell leukemia)” value (shortened to “Apoptosis (%) REC-1 Cells”) came out at 100%.

In the case of `CCN(CC)C(=O)c1cc(-c2cccs2)nc2c1c(C)nn2-c1ccccc1C` [BC11-15], the IC50 at PDE5A1 amounted to 43 µM; against PDE6C, 25 µM; on PDE7A it was 43 µM; on PDE10A1 [5] it was 35 µM.

As for `CCCSc1nc2c(c(=O)n1-c1ccccc1)SCC2` [BC11-38], in the data set with H295R cells [1], the “cAMP levels in H295R cells” value was “significantly increased”. Besides, the “cortisol production by H295R cells” value in the data set with H295R cells [2] is reported as “significantly increased”. Moreover, in the data set on H295R cells [6], the “phosphorylation of ATF1” value is recorded as “PDE11A-specific increase”. Moreover, in the data set with HeLa cells [7], the “cAMP levels in HeLa cells” value is reported as “do not increase”. Moreover, the “CREB phosphorylation in HeLa cells” value with HeLa cells [8] is given as “do not increase”.

Take `COc1ccc(C2CNC(=O)C2)cc1OC1CCCC1` (stereo not drawn) [Rolipram, rolipram, reference compound]: the “% apoptosis” value is 46.7% in [3] (compound alone (DMSO)); 12.7% in [4] (Roli 0.2 μM, BC11-4 0 μM); 24.9% in data set [4] (Roli 2.0 μM, BC11-4 0 μM); 33.8% in [4] (Roli 20 μM, BC11-4 0 μM); 13.2% in data set [9] (Roli 0.2 μM, BC11-8 0 μM); 23.5% in data set [9] (Roli 2.0 μM, BC11-8 0 μM). For the same molecule, in data set [9] (Roli 20 μM, BC11-8 0 μM), the “% apoptosis” value was found to be 29.9%. Besides, the “effect on apoptosis, in words” value (in data set [3]; with JVM-2 cells; in the data set with REC-1 cells) was “not affected” each time. In addition, in the data set on normal T cells (compound 20 μM alone (DMSO)), the “% apoptosis of normal T cells” value is 9.4%. In addition, the “Apoptosis (%) JVM-2 Cells” value in the data set on JVM-2 cells (20 μM) is 18.5%. In addition, the “Apoptosis (%) REC-1 Cells” value with REC-1 cells (20 μM) came out at 56.7%.

Take `C=CCSc1nnc2n(-c3ccccc3)c(=O)c3c(C)c(C)sc3n12` [BC11-8]: the “% apoptosis” value in data set [3] (compound) came to 63.3%; in data set [3] (compound alone (DMSO)), 60.1%; in data set [9] (BC11-8 0.1 μM, Roli 0 μM), 6.31%; in data set [9] (BC11-8 0.1 μM, Roli 0.2 μM), 11.7%; in data set [9] (BC11-8 0.1 μM, Roli 2.0 μM), 22.7%; in data set [9] (BC11-8 0.1 μM, Roli 20 μM), 28.2%. In addition, the “% apoptosis” value in data set [9] (BC11-8 1.0 μM, Roli 0 μM) is recorded as 7.63%; in data set [9] (BC11-8 1.0 μM, Roli 0.2 μM), 13.1%; in [9] (BC11-8 1.0 μM, Roli 2.0 μM) it was 19.5%; in [9] (BC11-8 1.0 μM, Roli 20 μM), 26.7%; in [9] (BC11-8 10.0 μM, Roli 0 μM), 21.8%; in data set [9] (BC11-8 10.0 μM, Roli 0.2 μM) it was 28.5%. Further, the “% apoptosis” value turned out to be 40.1% in [9] (BC11-8 10.0 μM, Roli 2.0 μM) and 41.5% in [9] (BC11-8 10.0 μM, Roli 20 μM). Also, the “effect on apoptosis, in words” value is “increase in apoptosis” in [3]; “increased apoptosis” in [9] (third patient, additive with rolipram); “increased apoptosis” with JVM-2 cells; “increased apoptosis” in the data set with REC-1 cells. In addition, the “% apoptosis of normal T cells” value with normal T cells (compound 20 μM alone (DMSO)) worked out at 10.3%; with normal T cells (setting [11]), 14.7%. Further, the “cell viability of normal T cells” value in the data set on normal T cells is on record as “did not affect cell viability”. Also, the “Apoptosis (%) JVM-2 Cells” value in the data set on JVM-2 cells (40 μM) is recorded as 28.8%. The “Apoptosis (%) REC-1 Cells” value in the data set with REC-1 cells (40 μM) is recorded as 66.2%. Also, the IC50 on human PDE11A4 is 0.05 µM; on PDE10A1 [10] it was 0.2 µM.

For the origin of these results see patent US9173884B2, “Inhibitors of phosphodiesterase 11 (PDE11)” (TRUSTEES OF BOSTON COLLEGE, priority 2011, dated 2015).
